Laboratory results published in PubChem BioAssay AID256 (DTP/NCI, 2004).
Inconclusive results and toxic doses are left out. Rule for the calls: active = survival T/C of 150% or more; inactive = T/C below 125% in these data.

System: CD2F1 mice, L1210 leukemia ip, survival T/C
Experiment: NCI In Vivo Anticancer Drug Screen. Data for tumor model L1210 Leukemia (intraperitoneal) in CD2F1 (CDF1) mice
Conditions: higher = longer survival
How it was run: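 Tumor-bearing mice (transplanted tumor) were split into treated and vehicle control groups, and the measured endpoint of each treated group was divided by that of its vehicle controls.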

[1] = endpoint: mean survival time, dose: 100.0 mg/kg/injection, schedule: Q01DX001 (ip), vehicle: saline
[2] = endpoint: mean survival time, dose: 200.0 mg/kg/injection, schedule: Q01DX001 (ip), vehicle: saline
[3] = endpoint: mean survival time, dose: 100.0 mg/kg/injection, schedule: Q01DX009 (ip), vehicle: saline with Tween-80
[4] = endpoint: mean survival time, dose: 200.0 mg/kg/injection, schedule: Q01DX009 (ip), vehicle: saline with Tween-80
[5] = endpoint: mean survival time, dose: 400.0 mg/kg/injection, schedule: Q01DX009 (ip), vehicle: saline with Tween-80
[6] = endpoint: mean survival time, dose: 100.0 mg/kg/injection, schedule: Q04DX003 (ip), vehicle: saline with Tween-80
[7] = endpoint: mean survival time, dose: 200.0 mg/kg/injection, schedule: Q04DX003 (ip), vehicle: saline with Tween-80
[8] = endpoint: mean survival time, dose: 100.0 mg/kg/injection, schedule: Q04DX003 (ip), vehicle: acetone
[9] = endpoint: mean survival time, dose: 100.0 mg/kg/injection, schedule: Q04DX003 (ip), vehicle: saline
[10] = endpoint: mean survival time, dose: 200.0 mg/kg/injection, schedule: Q04DX003 (ip), vehicle: saline
[11] = endpoint: mean survival time, dose: 400.0 mg/kg/injection, schedule: Q04DX003 (ip), vehicle: saline with Tween-80
[12] = endpoint: mean survival time, dose: 100.0 mg/kg/injection, schedule: Q04DX002 (ip), vehicle: saline with Tween-80

Measured: T/C

Nc1ncnc2c1c1c(N)[nH]c(=O)nc1n2C1OC(CO)C(O)C1O (stereo not drawn)
inactive: endpoint: mean survival time, dose: 12.5 mg/kg/injection, schedule: Q01DX005 (ip), vehicle: water 106 % of control | endpoint: mean survival time, dose: 25.0 mg/kg/injection, schedule: Q01DX005 (ip), vehicle: water 104 % of control | endpoint: mean survival time, dose: 50.0 mg/kg/injection, schedule: Q01DX005 (ip), vehicle: water 97 % of control | endpoint: mean survival time, dose: 100.0 mg/kg/injection, schedule: Q01DX005 (ip), vehicle: water 104 % of control | endpoint: mean survival time, dose: 200.0 mg/kg/injection, schedule: Q01DX005 (ip), vehicle: water 121 % of control

O=C1C(=O)c2ccc(Br)cc2C(O)=C1/C=C/c1ccccc1
inactive: endpoint: mean survival time, dose: 50.0 mg/kg/injection, schedule: Q01DX001 (ip), vehicle: saline 104 % of control | [1] 101 % of control | [2] 103 % of control

COc1ccc(OC)c(CCc2cc(OC)ccc2OC)c1
inactive: endpoint: mean survival time, dose: 12.5 mg/kg/injection, schedule: Q04DX003 (ip), vehicle: other 97 % of control | endpoint: mean survival time, dose: 25.0 mg/kg/injection, schedule: Q04DX003 (ip), vehicle: other 86 % of control | endpoint: mean survival time, dose: 50.0 mg/kg/injection, schedule: Q04DX003 (ip), vehicle: other 97 % of control

O=C(O)c1ccc(CC23CC4CC(CC(C4)C2)C3)cc1
inactive: endpoint: mean survival time, dose: 100.0 mg/kg/injection, schedule: Q01DX001 (ip), vehicle: saline with Tween-80 91 % of control | [3] 96 % of control | [4] 91 % of control | endpoint: mean survival time, dose: 400.0 mg/kg/injection, schedule: Q01DX001 (ip), vehicle: saline with Tween-80 91 % of control | [5] 86 % of control

O=C(C=C(C(F)(F)F)C(F)(F)F)c1ccc(C(=O)C=C(C(F)(F)F)C(F)(F)F)cc1
inactive: [6] 105 % of control | [7] 93 % of control

C=C1CC[C@]2(C)CC[C@]3(C)C4=CC=C5C(=CC(=O)C(O)=C5C)[C@]4(C)CC[C@@]3(C)[C@@H]2C1
inactive: endpoint: mean survival time, dose: 0.12 mg/kg/injection, schedule: Q01DX009 (ip), vehicle: saline with Tween-80 103 % of control | endpoint: mean survival time, dose: 0.25 mg/kg/injection, schedule: Q01DX009 (ip), vehicle: saline with Tween-80 102 % of control | endpoint: mean survival time, dose: 0.5 mg/kg/injection, schedule: Q01DX009 (ip), vehicle: saline with Tween-80 108 % of control | endpoint: mean survival time, dose: 1.0 mg/kg/injection, schedule: Q01DX009 (ip), vehicle: saline with Tween-80 86 % of control

Cc1ccc(S(=O)(=O)OC2CC3CCC2C3)cc1 (stereo not drawn)
inactive: [8] 105 % of control | endpoint: mean survival time, dose: 200.0 mg/kg/injection, schedule: Q04DX003 (ip), vehicle: acetone 101 % of control | endpoint: mean survival time, dose: 400.0 mg/kg/injection, schedule: Q04DX003 (ip), vehicle: acetone 100 % of control

NC1CCCCC1N.NC1CCCCC1N.[Cl-].[Cu+] (stereo not drawn)
inactive: endpoint: mean survival time, dose: 1.56 mg/kg/injection, schedule: Q04DX002 (ip), vehicle: saline 97 % of control | endpoint: mean survival time, dose: 3.13 mg/kg/injection, schedule: Q04DX002 (ip), vehicle: saline 97 % of control | endpoint: mean survival time, dose: 6.25 mg/kg/injection, schedule: Q04DX002 (ip), vehicle: saline 97 % of control

CCOC(=O)C(C)C(=O)O (stereo not drawn)
inactive: endpoint: mean survival time, dose: 50.0 mg/kg/injection, schedule: Q01DX009 (ip), vehicle: saline 97 % of control | endpoint: mean survival time, dose: 100.0 mg/kg/injection, schedule: Q01DX009 (ip), vehicle: saline 98 % of control | [9] 98 % of control | endpoint: mean survival time, dose: 200.0 mg/kg/injection, schedule: Q01DX009 (ip), vehicle: saline 98 % of control | [10] 96 % of control

CC/C(=N/O)c1ccccc1
inactive: [3] 98 % of control | [4] 92 % of control | [5] 103 % of control

O=[N+]([O-])c1ccc(/C=C/C2(CCl)OCCO2)cc1
inactive: endpoint: mean survival time, dose: 100.0 mg/kg/injection, schedule: Q01DX001 (ip), vehicle: Klucel (hydroxypropylcellulose) (HPC) 96 % of control | endpoint: mean survival time, dose: 200.0 mg/kg/injection, schedule: Q01DX001 (ip), vehicle: Klucel (hydroxypropylcellulose) (HPC) 92 % of control | endpoint: mean survival time, dose: 400.0 mg/kg/injection, schedule: Q01DX001 (ip), vehicle: Klucel (hydroxypropylcellulose) (HPC) 100 % of control

C[SeH]C.C[SeH]C.[Cl][Pt][Cl]
inactive: endpoint: mean survival time, dose: 0.94 mg/kg/injection, schedule: Q04DX003 (ip), vehicle: saline 100 % of control | endpoint: mean survival time, dose: 1.88 mg/kg/injection, schedule: Q04DX003 (ip), vehicle: saline 97 % of control | endpoint: mean survival time, dose: 3.75 mg/kg/injection, schedule: Q04DX003 (ip), vehicle: saline 97 % of control | endpoint: mean survival time, dose: 7.5 mg/kg/injection, schedule: Q04DX003 (ip), vehicle: saline 100 % of control | endpoint: mean survival time, dose: 15.0 mg/kg/injection, schedule: Q04DX003 (ip), vehicle: saline 100 % of control | endpoint: mean survival time, dose: 30.0 mg/kg/injection, schedule: Q04DX003 (ip), vehicle: saline 105 % of control

COc1ccc2c(c1)CNC1c3cc(OC)c(O)cc3CC21 (stereo not drawn)
inactive: endpoint: mean survival time, dose: 66.0 mg/kg/injection, schedule: Q04DX003 (ip), vehicle: saline with Tween-80 107 % of control

C=C=CCCCCCCCC
inactive: [6] 102 % of control | [7] 98 % of control | [11] 105 % of control

CC(C)(C)c1ccc(-n2cnc3c(=O)[nH]c(N)nc32)cc1
inactive: endpoint: mean survival time, dose: 50.0 mg/kg/injection, schedule: Q04DX002 (ip), vehicle: saline with Tween-80 86 % of control | [12] 90 % of control

CCC/C=N\O
inactive: [9] 110 % of control | [10] 93 % of control | endpoint: mean survival time, dose: 400.0 mg/kg/injection, schedule: Q04DX003 (ip), vehicle: saline 100 % of control

C/C(Cl)=C\CSc1ccccc1
inactive: [1] 100 % of control | [2] 100 % of control | endpoint: mean survival time, dose: 400.0 mg/kg/injection, schedule: Q01DX001 (ip), vehicle: saline 101 % of control

CCC(=O)OC1(c2ccccc2)CCN(C/C=C/c2ccccc2[N+](=O)[O-])CC1
inactive: endpoint: median survival time, dose: 12.5 mg/kg/injection, schedule: Q04DX003 (ip), vehicle: saline with Tween-80 100 % of control | endpoint: median survival time, dose: 25.0 mg/kg/injection, schedule: Q04DX003 (ip), vehicle: saline with Tween-80 88 % of control | endpoint: median survival time, dose: 50.0 mg/kg/injection, schedule: Q04DX003 (ip), vehicle: saline with Tween-80 100 % of control | endpoint: median survival time, dose: 100.0 mg/kg/injection, schedule: Q04DX003 (ip), vehicle: saline with Tween-80 100 % of control

CC(C)(C)C(=O)CC(=O)C(C)(C)C.CC(C)(C)C(=O)CC(=O)C(C)(C)C.CC(C)(C)C(=O)CC(=O)C(C)(C)C.[Nd]
inactive: [6] 101 % of control | [7] 95 % of control | [11] 95 % of control

C#CCOC1CCCCC1O (stereo not drawn)
inactive: [8] 101 % of control

NOc1ccc([N+](=O)[O-])cc1[N+](=O)[O-]
inactive: endpoint: mean survival time, dose: 25.0 mg/kg/injection, schedule: Q01DX009 (ip), vehicle: saline with Tween-80 89 % of control

CC(C)([NH-])C[NH-].O=C(O)CC(=O)O.[Pt+2]
inactive: endpoint: median survival time, dose: 20.0 mg/kg/injection, schedule: Q04DX003 (ip), vehicle: distilled water + Tween-80 104 % of control

CC(C)=C(C)c1ccccc1
inactive: endpoint: mean survival time, dose: 50.0 mg/kg/injection, schedule: Q01DX009 (ip), vehicle: saline with Tween-80 103 % of control | [3] 106 % of control | [4] 103 % of control

C/C(C(=O)O)=C(\C)c1ccccc1
inactive: [12] 92 % of control | endpoint: mean survival time, dose: 200.0 mg/kg/injection, schedule: Q04DX002 (ip), vehicle: saline with Tween-80 103 % of control | endpoint: mean survival time, dose: 400.0 mg/kg/injection, schedule: Q04DX002 (ip), vehicle: saline with Tween-80 103 % of control

Oc1c(Cl)cc(Cl)cc1CN(Cc1cc(Cl)cc(Cl)c1O)c1ccccc1
inactive: endpoint: mean survival time, dose: 12.5 mg/kg/injection, schedule: Q01DX009 (ip), vehicle: Klucel (hydroxypropylcellulose) (HPC) 103 % of control | endpoint: mean survival time, dose: 25.0 mg/kg/injection, schedule: Q01DX009 (ip), vehicle: Klucel (hydroxypropylcellulose) (HPC) 102 % of control | endpoint: mean survival time, dose: 50.0 mg/kg/injection, schedule: Q01DX009 (ip), vehicle: Klucel (hydroxypropylcellulose) (HPC) 101 % of control | endpoint: mean survival time, dose: 100.0 mg/kg/injection, schedule: Q01DX009 (ip), vehicle: Klucel (hydroxypropylcellulose) (HPC) 100 % of control | endpoint: mean survival time, dose: 200.0 mg/kg/injection, schedule: Q01DX009 (ip), vehicle: Klucel (hydroxypropylcellulose) (HPC) 100 % of control | endpoint: mean survival time, dose: 400.0 mg/kg/injection, schedule: Q01DX009 (ip), vehicle: Klucel (hydroxypropylcellulose) (HPC) 94 % of control

C=CCOCC(O)CNCC(O)COCC=C (stereo not drawn)
inactive: [6] 100 % of control

CS(=O)(=O)OCCF
inactive: endpoint: mean survival time, dose: 1.5 mg/kg/injection, schedule: Q04DX003 (ip), vehicle: saline with Tween-80 98 % of control | endpoint: mean survival time, dose: 3.0 mg/kg/injection, schedule: Q04DX003 (ip), vehicle: saline with Tween-80 98 % of control | endpoint: mean survival time, dose: 6.0 mg/kg/injection, schedule: Q04DX003 (ip), vehicle: saline with Tween-80 103 % of control
